Assay results taken from US12655144B2, “Method for producing heterocyclic compound” (TAKEDA PHARMACEUTICAL COMPANY LIMITED, priority 2020, dated 2026).

Experiments:
OCI-Ly3 cells = assay: Measurement of growth inhibitory activity using OCI-Ly3 cells; type: cell-based; details: Homo sapiens, 144 h, 3 μM compound, 6 days, Cell Titer-Glo, read-out: Cell growth inhibition rate (%) at 3 μM compound
Description: Measurement of Growth Inhibitory Activity Using OCI-Ly3 Cells
OCI-Ly3 cells were seeded in a cell culture medium IMDM (Fujifilm Wako Pure Chemical Corporation) containing 20% FCS (fetal calf serum, Thermo Fisher Scientific) and monothioglycerol (Fujifilm Wako Pure Chemical Corporation) so as to be at 1.25×10^3 cells/well on a 96-well plate. […] Subsequently, the luminescence value was measured with Envision (PerkinElmer) on the day of seeding. […] Subsequently, the luminescence value was measured in the same manner. The inhibition rate (%) of the test compound on OCI-Ly3 cell growth was calculated by the following formula. Cell growth inhibition rate (%)=(1−(Luminescent value on day 6 of test compound treatment−Luminescent value before test compound treatment)/(Luminescent value on day 6 without compound addition−Luminescent value before compound treatment))×100

[1] = tested on: OCI-Ly3 subcutaneously transplanted tumor; assay: Antitumor effect on OCI-Ly3 cell-bearing cancer model; type: in vivo, NOG female mice; details: 10 mg/kg orally twice daily for 3 weeks; average tumor volume increase ratio vs control; NOG mice bearing OCI-Ly3
Description: Antitumor Effect on OCI-Ly3 Cell-Bearing Cancer Model Human diffuse large-cell B-cell lymphoma cells OCI-Ly3 (DSMZ, German Collection of Microorganisms and Cell Cultures) were suspended in a Matrigel (BD Biosciences):HBSS (Thermo Fisher Scientific)=1:1 solution, and 1×10^7 cells were transplanted subcutaneously into the abdomen of NOG female mice (CLEA Japan, Inc.). The tumor diameter of the engrafted tumor was measured, and the tumor volume was calculated by the following formula. Tumor volume=major axis×minor axis×minor axis×(1/2) Individuals with the engrafted tumor having a tumor volume of about 120 mm^3 were selected, and 6 animals per group were used in the experiment. A suspension of the test compound in 0.5% methylcellulose solution (Fujifilm Wako Pure Chemical Corporation) was orally administered at a dose of 10 mg/kg (10 mL/kg) twice daily for 3 weeks. The tumor volume was measured on the day before the start of administration and every 3 to 4 days over time, and the tumor diameter was finally measured the day after the end of administration for 21 days to calculate the tumor volume. The tumor growth of the test compound-administered group compared with the control-administered group was calculated by the following formula as an average tumor volume increase ratio T/C. […]

Structure (SMILES)	inhibition at 3 µM (OCI-Ly3 cells) [%]	T/C (%) [1] [%]
CO[C@@H](C)c1c(NC(=O)Nc2cnc(-n3nccn3)c(C(F)(F)F)c2)cnc2ccc(C)nc12 [Compound X2, (S)—N-(4-(1-methoxyethyl)-6-methyl-1,5-naphthyridine-3-yl)-N′-(6-(2H-1,2,3-triazole-2-yl)-5-(trifluoromethyl)pyridine-3-yl)urea]	99	38.7
CO[C@@H](C)c1c(NC(=O)Nc2cnc(-n3nccn3)c(C(F)(F)F)c2)cnc2ccc(Cl)nc12 [Compound X1, (S)—N-(6-Chloro-4-(1-methoxyethyl)-1,5-naphthyridine-3-yl)-N′-(6-(2H-1,2,3-triazole-2-yl)-5-(trifluoromethyl)pyridine-3-yl)urea]	97	2.0
